{
  "source": "patent US20080187911A1",
  "about": "“Methods and compositions for analysis of mitochondrial-related gene expression” (priority 2003, published 2008)",
  "key": {"[1]": {"test_system": "mitochondrial DNA encoded gene expression", "experiment": "Microarray analysis of mitochondrial DNA encoded gene expression in response to 3-nitropropionic acid", "assay_type": "cell-based", "conditions": "3 NPA treatments at 6, 12 and 26 hours; inhibition of Complex II (succinic dehydrogenase)", "method": "FIGS. 5A-5B. Analysis of mitochondrial DNA encoded gene expression. FIG. 5A—response to 3-nitropropionic acid, an inhibitor of Complex II—succinic dehydrogenase. […] FIG. 5B-analysis of mitochondrial DNA encoded gene expression in trypanosome infected heart tissue.\nAnalysis of mitochondrial DNA encoded gene expression in response to 3-nitropropionic acid (3NPA), an inhibitor of Complex II—succinic dehydrogenase was performed (FIG. 5A, Table 5). The 3 NPA treatments were at 6, 12 and 26 hours."}, "[2]": {"test_system": "mouse mitochondrial genes in AML-12 mouse liver cells", "experiment": "Microarray analysis of the effects of rotenone on expression of mouse mitochondrial genes", "assay_type": "cell-based", "conditions": "AML-12 mouse liver cells in culture", "from_the_text": "FIG. 4. The effects of rotenone, an inhibitor of mitochondrial Complex I, on the expression of mouse mitochondrial genes in AML-12 mouse liver cells in culture.\nThe effects of rotenone, an inhibitor of mitochondrial Complex I, on the expression of mouse mitochondrial genes in AML-12 mouse liver cells in culture were examined (FIG. 4; Table 4). […] Spots A1-G11 represent mitochondrial related nuclear encoded genes; spots G12-H12 represent the 13 genes encoded by mitochondrial DNA. It should be noted that in subsequent microarray designs (constructions) the mitochondrial DNA encoded genes G12-H12 were removed from the filters and arrayed separately. Thus, the G12-H12 spots were replaced with nuclear encoded genes. […] E4 and E5 represent the […] and 16S mitochondrial ribosomal RNAs."}},
  "data": [
    {"smiles": "O=C(O)CC[N+](=O)[O-]", "note": "[3-nitropropionic acid]", "values": [
      {"measurement": "synthesis of mitochondrial encoded mRNAs and ribosomal RNAs", "setting": "[1]", "result": "stimulates the synthesis of mitochondrial encoded mRNAs and the 23S and 16S ribosomal RNAs"}
    ]},
    {"smiles": "C=C(C)[C@H]1Cc2c(ccc3c2O[C@@H]2COc4cc(OC)c(OC)cc4[C@@H]2C3=O)O1", "note": "[rotenone]", "values": [
      {"measurement": "mRNA pool levels of mitochondrial-related genes on the microarray", "setting": "[2]; genes named: A11 ATP synthase lipid binding proteins, B8 ADP, ATP carrier protein, B9 cytochrome C oxidase chain VIIa, D12 chaperonin 10, E12 pyruvate carboxylase, H7 Complex I: Protein Dehydrogenase chain 3", "result": "up-regulated"},
      {"measurement": "production of mRNAs of Complex I proteins (H7, H10)", "setting": "[2]; inhibition of Complex I, suggested compensatory response", "result": "may stimulate the production of mRNAs of Complex I proteins (H7, H10)"}
    ]}
  ]
}
